The structures appear in SMILES notation.

Chain of rat MCH-1 (P97639 whole entry): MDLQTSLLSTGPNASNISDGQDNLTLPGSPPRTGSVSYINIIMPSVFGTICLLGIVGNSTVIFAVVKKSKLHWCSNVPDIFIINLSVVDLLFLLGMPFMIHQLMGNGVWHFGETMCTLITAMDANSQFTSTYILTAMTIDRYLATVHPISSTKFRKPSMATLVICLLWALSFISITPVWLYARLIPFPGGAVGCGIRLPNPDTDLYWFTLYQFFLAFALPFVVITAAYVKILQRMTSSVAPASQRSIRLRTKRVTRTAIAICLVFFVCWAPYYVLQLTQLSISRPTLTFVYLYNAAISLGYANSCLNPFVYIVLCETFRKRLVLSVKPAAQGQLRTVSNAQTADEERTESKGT

This test addresses rat MCH-1 (Rattus norvegicus, UniProt P97639). The test can be described thus: Radioligand binding assay at cloned rat MCH1 receptor ([3H] Compound A). Set-up: host or cells: Peak rapid 293 (Peakr293) cells, transient calcium phosphate transfection, membranes. The following applies: cloned rat MCH1 receptor, membranes from Peakr293 cells, 0.08 nM [3H] Compound A; read-out: Ki (nM) rMCH1.
For `CC(C)C(=O)Nc1cccc(C2CCN(CCC(Oc3ccc(Br)cc3)c3ccc4c(c3)CCC4)CC2)c1` (stereo not drawn) [Example 165, N-(3-{1-[3-(4- BROMOPHENOXY)-3-(2,3-DIHYDRO-1H-INDEN-5-YL)PROPYL]-4-PIPERIDINYL}PHENYL)-2-METHYLPROPANAMIDE], the Ki – broadly, the dissociation constant of the complex between target and ligand, obtained from inhibition or displacement – came out at 6.2 nM. For `CC(=O)c1cccc(OC(CCN2CCC(c3cccc(NC(=O)C(C)C)c3)CC2)c2ccc(Cl)cc2)c1` (stereo not drawn) [Example 166] the value was 7.7 nM; for `COc1ccc(OC(CCN2CCC(c3cccc(NC(=O)C(C)C)c3)CC2)c2ccc(OC)cc2)cc1` (stereo not drawn) [Example 167], 80.4 nM. For `CC(C)C(=O)Nc1cccc(C2CCN(CCC(Oc3ccc(Cl)cc3)c3ccc4c(c3)CCC4)CC2)c1` (stereo not drawn) [Example 168] the value was 7 nM; for `CC(=O)c1ccccc1OC(CCN1CCC(c2cccc(NC(=O)C(C)C)c2)CC1)c1ccc(Cl)cc1` (stereo not drawn) [Example 169], 7.7 nM. In the case of `COc1ccc(OC(CCN2CCC(c3cccc(NC(=O)C(C)C)c3)CC2)c2ccc(Br)cc2)cc1` (stereo not drawn) [Example 170], the inhibition constant (Ki) is 3 nM. The same measure for `CC(C)C(=O)Nc1cccc(C2CCN(CCC(Oc3ccc(Br)cc3)c3ccc(Cl)cc3)CC2)c1` (stereo not drawn) [Example 171]: 3.7 nM.

Take `CC(C)C(=O)Nc1cccc(C2CCN(CCC(Oc3ccc(Cl)cc3)c3ccc(Cl)cc3)CC2)c1` (stereo not drawn) [Example 172]: the inhibition constant Ki was determined as 3 nM. `COc1ccc(C(CCN2CCC(c3cccc(NC(=O)C(C)C)c3)CC2)Oc2ccccc2)cc1` (stereo not drawn) [Example 173, N-(3-{1-[3-(4- METHOXYPHENYL)-3-PHENOXYPROPYL]-4-PIPERIDINYL}PHENYL)-2-METHYLPROPANAMIDE]: the inhibitory constant (Ki) turned out to be 112 nM. Consider `CC(C)C(=O)Nc1cccc(C2CCN(CCC(Oc3ccccc3)c3ccc(F)cc3)CC2)c1` (stereo not drawn) [Example 174], for which the Ki was 17 nM. `CC(=O)c1ccccc1OC(CCN1CCC(c2cccc(NC(=O)C(C)C)c2)CC1)c1ccc(F)cc1` (stereo not drawn) [Example 175]: the inhibitory constant (Ki) amounted to 16.2 nM.

With `CC(=O)c1cccc(OC(CCN2CCC(c3cccc(NC(=O)C(C)C)c3)CC2)c2ccc(F)cc2)c1` (stereo not drawn) [Example 176], the Ki was 11.8 nM. For `COc1ccc(OC(CCN2CCC(c3cccc(NC(=O)C(C)C)c3)CC2)c2ccc(F)cc2)cc1` (stereo not drawn) [Example 177] the value was 6.8 nM; for `COc1ccc(C(CCN2CCC(c3cccc(NC(=O)C(C)C)c3)CC2)Oc2ccc(Cl)cc2)cc1` (stereo not drawn) [Example 178], 119 nM; for `COc1ccc(C(CCN2CCC(c3cccc(NC(=O)C(C)C)c3)CC2)Oc2cccc(C(C)=O)c2)cc1` (stereo not drawn) [Example 179], 82.3 nM.

Turning to `CC(C)C(=O)Nc1cccc(C2CCN(CCC(Oc3ccccc3)c3ccc(Cl)cc3)CC2)c1` (stereo not drawn) [Example 180], the inhibitory constant (Ki) is 9.7 nM. The same measure for `COc1ccc(C(CCN2CCC(c3cccc(NC(=O)C(C)C)c3)CC2)Oc2ccc(Br)cc2)cc1` (stereo not drawn) [Example 181]: 91.9 nM; for `COc1ccc(C(CCN2CCC(c3cccc(NC(=O)C(C)C)c3)CC2)Oc2ccc(C(F)(F)F)cc2)cc1` (stereo not drawn) [Example 182]: 101 nM; for `CC(C)C(=O)Nc1cccc(C2CCN(CCC(Oc3ccc(F)cc3)c3ccc(Cl)cc3)CC2)c1` (stereo not drawn) [Example 183]: 4 nM.

As for `COc1ccc(C(CCN2CCC(c3cccc(NC(=O)C(C)C)c3)CC2)Oc2ccc(F)cc2)cc1` (stereo not drawn) [Example 184], the Ki turned out to be 105 nM. For `COc1ccc(C(CCN2CCC(c3cccc(NC(=O)C(C)C)c3)CC2)Oc2ccccc2C(C)=O)cc1` (stereo not drawn) [Example 185] the value was 20.6 nM. For `CC(C)C(=O)Nc1cccc(C2CCN(CCC(Oc3ccc(C(F)(F)F)cc3)c3ccc(Cl)cc3)CC2)c1` (stereo not drawn) [Example 186] the value was 4.9 nM.

In the case of `CC(=O)c1cccc(O[C@@H](CCN2CCC(c3cc(NC(=O)C(C)C)ccc3C)CC2)c2ccccc2)c1` [Example 187], the inhibition constant Ki stood at 15.6 nM.

As for `CC(C)CCOc1ccc2ccccc2c1CN1CCC(c2cccc(NC(=O)C(C)C)c2)CC1` [Example 188], the Ki is 531 nM.

As to `CCCCOc1ccc2ccccc2c1CN1CCC(c2cccc(NC(=O)C(C)C)c2)CC1` [Example 189], the Ki was 438 nM. The same measure for `CC(C)C(=O)Nc1cccc(C2CCN(Cc3c(OCc4ccc(C#N)cc4)ccc4ccccc34)CC2)c1` [Example 190]: 436 nM; for `CC(C)C(=O)Nc1cccc(C2CCN(Cc3c(OCC#N)ccc4ccccc34)CC2)c1` [Example 191]: 649 nM; for `CC(C)C(=O)Nc1cccc(C2CCN(Cc3c(OCc4cccc(Cl)c4)ccc4ccccc34)CC2)c1` [Example 192]: 80.5 nM. For the compound `CC(C)CCOc1ccc(CN2CCC(c3cccc(NC(=O)C(C)C)c3)CC2)c2ccccc12` [Example 195], the inhibition constant Ki is 106 nM. For `COc1ccc(Oc2ccc(CN3CCC(c4cccc(NC(=O)C(C)C)c4)CC3)cc2)cc1` [Example 196], the inhibition constant Ki was found to be 35.2 nM.

Consider `CCCOc1ccc(CN2CCC(c3cccc(NC(=O)C(C)C)c3)CC2)c2ccccc12` [Example 197], for which the Ki was found to be 63.1 nM. Take `CC(C)C(=O)Nc1cccc(C2CCN(C(C)c3csc(-c4ccccc4)n3)CC2)c1` (stereo not drawn) [Example 201]: the Ki is 996 nM. Consider `Cc1nn(-c2ccccc2)c(Cl)c1CN1CCC(c2cccc(NC(=O)C(C)C)c2)CC1` [Example 202], for which the inhibition constant Ki stood at 155 nM. For `CC(C)C(=O)Nc1cccc(C2CCN(Cc3c[nH]c(-c4ccccc4)n3)CC2)c1` [Example 203] the value was 79.6 nM; for `CC(C)C(=O)Nc1cccc(C2CCN(Cc3c(Br)cnn3Cc3ccc(Cl)cc3)CC2)c1` [Example 204], 39.8 nM. The same measure for `CC(C)C(=O)Nc1cccc(C2CCN(Cc3cccc(Oc4ccccc4)c3)CC2)c1` [Example 205]: 28 nM; for `CC(C)C(=O)Nc1cccc(C2CCN(Cc3cccc(Oc4ccc(Cl)c(Cl)c4)c3)CC2)c1` [Example 206]: 17.7 nM; for `CC(C)C(=O)Nc1cccc(C2CCN(Cc3cccc(Oc4cc(Cl)cc(Cl)c4)c3)CC2)c1` [Example 207, N-(3-{1-[3-(3,5-dichlorophenoxy)benzyl]-4-piperidinyl}phenyl)-2-methylpropanamide]: 137 nM. The same measure for `Cc1ccc(Oc2cccc(CN3CCC(c4cccc(NC(=O)C(C)C)c4)CC3)c2)cc1` [Example 208]: 30.8 nM; for `CC(C)C(=O)Nc1cccc(C2CCN(Cc3cccc(Oc4cccc(C(F)(F)F)c4)c3)CC2)c1` [Example 209]: 64.8 nM; for `CC(C)C(=O)Nc1cccc(C2CCN(Cc3cccc(Oc4ccc(Cl)cc4)c3)CC2)c1` [Example 210]: 23.3 nM.

As for `CC(C)C(=O)Nc1cccc(C2CCN(Cc3cccc(N(C)C)c3)CC2)c1` [Example 211], the Ki came out at 111 nM. The same measure for `COc1ccc(Oc2cccc(CN3CCC(c4cccc(NC(=O)C(C)C)c4)CC3)c2)cc1` [Example 212]: 43 nM. For `CC(C)C(=O)Nc1cccc(C2CCN(Cc3cccc(Oc4ccc(C(C)(C)C)cc4)c3)CC2)c1` [Example 213] the value was 519 nM. On to `CC(C)C(=O)Nc1cccc(C2CCN(Cc3ccc(N4CCCCC4)c([N+](=O)[O-])c3)CC2)c1` [Example 214], for which the inhibitory constant (Ki) was 56.3 nM. For the compound `Cc1csc2sc(CN3CCC(c4cccc(NC(=O)C(C)C)c4)CC3)c(C)c12` [Example 215, N-(3-{1-[(3,4- DIMETHYLTHIENO[2,3-B]THIEN-2-YL)METHYL]-4-PIPERIDINYL}PHENYL)-2-METHYLPROPANAMIDE], the Ki is 283 nM. For `CC(C)C(=O)Nc1cccc(C2CCN(Cc3c[nH]nc3-c3ccc(C(F)(F)F)cc3)CC2)c1` [Example 216] the value was 818 nM; for `CC(C)C(=O)Nc1cccc(C2CCN(Cc3ccc(-n4cncn4)cc3)CC2)c1` [Example 217], 300 nM. For `Cc1c(CN2CCC(c3cccc(NC(=O)C(C)C)c3)CC2)cnn1-c1ccccc1` [Example 218] the value was 126 nM. The same measure for `CC(C)C(=O)Nc1cccc(C2CCN(Cc3ccc(N4CCOCC4)c([N+](=O)[O-])c3)CC2)c1` [Example 219]: 68.8 nM; for `CC(C)C(=O)Nc1cccc(C2CCN(Cc3ccc(-c4ccc(C(F)(F)F)cc4Cl)o3)CC2)c1` [Example 220]: 159 nM. As for `CCOC(=O)c1c(CN2CCC(c3cccc(NC(=O)C(C)C)c3)CC2)c(C)n(-c2ccccc2)c1C` [Example 221, ETHYL 4-({4-[3-(ISOBUTYRYLAMINO)PHENYL]-1-PIPERIDINYL}METHYL)-2,5-DIMETHYL-1-PHENYL-1H-PYRROLE-3-CARBOXYLATE], the Ki came to 546 nM. For `CCOC(=O)c1cc(-c2ccc(Cl)cc2)oc1CN1CCC(c2cccc(NC(=O)C(C)C)c2)CC1` [Example 222, ETHYL 5-(4-CHLOROPHENYL)-2-({4-[3-(ISOBUTYRYLAMINO)PHENYL]-1-PIPERIDINYL}METHYL)-3-FUROATE] the value was 152 nM. The same measure for `CC(C)C(=O)Nc1cccc(C2CCN(Cc3ccc4c(c3)OCCO4)CC2)c1` [Example 223]: 318 nM; for `CC(C)C(=O)Nc1cccc(C2CCN(Cc3ccc(Oc4ccccc4)nc3)CC2)c1` [Example 224]: 48 nM; for `CC(C)C(=O)Nc1cccc(C2CCN(Cc3ccc(-c4ccccn4)s3)CC2)c1` [Example 225]: 214 nM. Take `CC(C)C(=O)Nc1cccc(C2CCN(Cc3ccc(-c4cc(C(F)(F)F)nn4C)s3)CC2)c1` [Example 226]: the Ki is 239 nM.

On to `CC(C)C(=O)Nc1cccc(C2CCN(Cc3cn(S(=O)(=O)c4ccccc4)c4ccccc34)CC2)c1` [Example 227], for which the inhibition constant (Ki) came to 262 nM. The same measure for `Cc1c(CN2CCC(c3cccc(NC(=O)C(C)C)c3)CC2)c(=O)n(-c2ccccc2)n1C` [Example 228]: 841 nM; for `CC(C)C(=O)Nc1cccc(C2CCN(Cc3ccc(-c4nc(C(C)(C)C)cs4)cc3)CC2)c1` [Example 229]: 885 nM; for `Cc1nc(-c2ccccc2)ncc1CN1CCC(c2cccc(NC(=O)C(C)C)c2)CC1` [Example 231]: 596 nM. For `CC(C)C(=O)Nc1cccc(C2CCN(Cc3ccc4nsnc4c3)CC2)c1` [Example 232] the value was 431 nM; for `CC(C)C(=O)Nc1cccc(C2CCN(Cc3ccc(-c4ccccc4)s3)CC2)c1` [Example 233], 125 nM.
